Measured values: PubChem BioAssay (NCI)
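Dose response: 5 concentrations. Exposure: 48 h. Format: 96-well plates. Endpoint: linear interpolation; highest concentration if not reached. Definition used: TGI = concentration required for complete inhibition of growth.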

Assays:
Assay in all cases: NCI tumour cell line growth inhibition, 48 h
DLD-1 colon = system: DLD-1 colon
DMS 273 small cell lung = system: DMS 273 small cell lung
HCC-2998 colon = system: HCC-2998 colon
HOP-18 NSCLC = system: HOP-18 NSCLC
KM12 colon = system: KM12 colon
KM20L2 colon = system: KM20L2 colon
M19-MEL melanoma = system: M19-MEL melanoma
MCF7 breast = system: MCF7 breast
MDA-MB-435 = system: MDA-MB-435
OVCAR-3 ovarian = system: OVCAR-3 ovarian
P388 leukemia = system: P388 leukemia
P388/ADR leukemia = system: P388/ADR leukemia
SN12K1 renal = system: SN12K1 renal
SNB-78 CNS = system: SNB-78 CNS
XF 498 CNS = system: XF 498 CNS
DMS 114 small cell lung = system: DMS 114 small cell lung
LXFL 529 NSCLC = system: LXFL 529 NSCLC

Row | SMILES | TGI (DLD-1 colon) | TGI (DMS 273 small cell lung) | TGI (HCC-2998 colon) | TGI (HOP-18 NSCLC) | TGI (KM12 colon) | TGI (KM20L2 colon) | TGI (M19-MEL melanoma) | TGI (MCF7 breast) | TGI (MDA-MB-435) | TGI (OVCAR-3 ovarian) | TGI (P388 leukemia) | TGI (P388/ADR leukemia) | TGI (SN12K1 renal) | TGI (SNB-78 CNS) | TGI (XF 498 CNS) | TGI (DMS 114 small cell lung) | TGI (LXFL 529 NSCLC)
1 | CCCCCCCCCCCCOCCCOP(=O)([O-])OCC[N+](C)(C)C | > 95.8 µM | 35.5 µM | 24.9 µM | > 100 µM | 9.77 µM | > 100 µM | > 100 µM | > 100 µM | > 70 µM | > 100 µM | 97.7 µM | > 100 µM | > 100 µM | > 89.5 µM | > 89.4 µM |  | 
2 | CN1C(=O)C(=O)c2cc3c(c4c2c1cc1ccccc14)OCO3 | > 100 µM | > 100 µM | > 100 µM | > 100 µM | 58.9 µM | > 100 µM | > 100 µM |  |  | > 100 µM |  |  |  | > 100 µM | > 100 µM | > 100 µM | > 100 µM
3 | N#C/C(=C1\SC(N=Nc2ccccc2)C(=O)N1c1ccccc1)c1nc2ccccc2[nH]1 (stereo not drawn) | > 100 µM | > 100 µM |  |  |  | > 100 µM | > 100 µM |  |  | > 100 µM |  |  |  | > 100 µM | 85 µM | > 100 µM | > 100 µM
4 | Cc1cc(=O)oc2c(C)c(OCCCOc3ccc4c(C)cc(=O)oc4c3C)ccc12 | > 100 µM | > 100 µM |  | > 100 µM | > 100 µM | > 100 µM | > 100 µM |  |  | > 100 µM |  |  |  | > 100 µM | > 100 µM | > 100 µM | > 100 µM
5 | O=C1CCCCCCCCCCC1CN1CCCCC1 (stereo not drawn) | > 100 µM | > 100 µM | > 100 µM |  | > 100 µM | > 100 µM | > 100 µM |  |  | > 100 µM |  |  |  | > 100 µM | > 100 µM | > 100 µM | > 100 µM
